As a reminder, the IC50 is the concentration that inhibits the measured activity by half.

The text below walks through data of US9221809B2 (MERCK SHARP & DOHME CORP., priority 2011, dated 2015).

SMILES strings stand for the structures. Structures can show the parent of a compound that is named as a salt.

IRAK4, sequence (Q9NWZ3 whole entry): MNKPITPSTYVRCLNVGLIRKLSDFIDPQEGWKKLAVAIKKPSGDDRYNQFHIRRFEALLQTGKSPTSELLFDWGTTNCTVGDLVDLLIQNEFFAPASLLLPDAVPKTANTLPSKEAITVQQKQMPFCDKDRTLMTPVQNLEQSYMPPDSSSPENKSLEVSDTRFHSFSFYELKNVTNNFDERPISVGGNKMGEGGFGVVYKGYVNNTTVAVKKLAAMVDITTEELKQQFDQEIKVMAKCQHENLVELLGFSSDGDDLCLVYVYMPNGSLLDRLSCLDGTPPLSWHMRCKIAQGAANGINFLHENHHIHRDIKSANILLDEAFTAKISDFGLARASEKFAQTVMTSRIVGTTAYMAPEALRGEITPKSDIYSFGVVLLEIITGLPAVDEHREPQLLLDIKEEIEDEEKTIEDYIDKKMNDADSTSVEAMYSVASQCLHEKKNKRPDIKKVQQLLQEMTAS

For one assay, the target named is IRAK4 (Homo sapiens (Human), UniProt Q9NWZ3). Nature of the assay: IRAK4 kinase activity, IMAP fluorescence polarization assay. As to conditions: 100 μM ATP, 0.5 nM GST tagged IRAK4; read-out: IRAK4 IC50. The assay is classed as biochemical. The procedure, abridged:
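GST-tagged IRAK4 at 0.5 nM phosphorylates 100 nM fluorescent peptide substrate with 100 μM ATP in pH 7.2 Tris buffer containing MgCl2, DTT and Tween 20, 30 min at 25 °C. Reaction stopped with IMAP binding reagent; phosphorylation read as increased fluorescence polarization.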
Regarding `O=c1[nH]c(N2CCOCC2)nc(NC2CCNC2)c1-c1nc2ccccc2s1` (stereo not shown) [Example 85, 5-(Benzo[d]thiazol-2-yl)-2-morpholino-6-(pyrrolidin-3-ylamino)pyrimidin-4(3H)-one.HCl], the IC50 amounted to 177 nM. The same measure, in the same setting: the value for `O=c1[nH]c(N2CCOCC2)nc(N[C@H]2CCNC2)c1-c1nc2ccccc2s1` [Example 86, (S)-5-(Benzo[d]thiazol-2-yl)-2-morpholino-6-(pyrrolidin-3-ylamino)pyrimidin-4(3H)-one.HCl] was 620 nM; that for `O=c1[nH]c(N2CCOCC2)nc(N[C@@H]2CCNC2)c1-c1nc2ccccc2s1` [Example 87, (R)-5-(Benzo[d]thiazol-2-yl)-2-morpholino-6-(pyrrolidin-3-ylamino)pyrimidin-4(3H)-one.HCl] was 36 nM. The same measure, in the same setting: the value for `NC1CCCC(Nc2nc(N3CCOCC3)[nH]c(=O)c2-c2nc3ccccc3s2)C1` (stereo not shown) [Example 90, 6-(3-Aminocyclohexylamino)-5-(benzo[d]thiazol-2-yl)-2-morpholinopyrimidin-4(3H)-one.HCl] was 258 nM.

`O=C1NCCCC[C@H]1Nc1nc(N2CCOCC2)[nH]c(=O)c1-c1nc2ccccc2s1` [Example 91, (R)-3-(5-(Benzo[d]thiazol-2-yl)-2-morpholino-6-oxo-1,6-dihydropyrimidin-4-ylamino)azepan-2-one.HCl]: the IC50 is 2430 nM.

Consider `O=c1[nH]c(N2CCOCC2)nc(NC2CCCCNC2)c1-c1nc2ccccc2s1` (stereo not shown) [Example 92, 6-(Azepan-3-ylamino)-5-(benzo[d]thiazol-2-yl)-2-morpholinopyrimidin-4(3H)-one.HCl], for which the half-inhibitory concentration (IC50) is 27 nM. Take `O=c1[nH]c(N2CCOCC2)nc(N[C@@H]2CCCNC2)c1-c1ccc2ccccc2n1` [Example 93, (R)-2-Morpholino-6-(piperidin-3-ylamino)-5-(quinolin-2-yl)pyrimidin-4(3H)-one.HCl]: the half-maximal inhibitory concentration (IC50) amounted to 26 nM.

On to `CN1CCC[C@@H](Nc2nc(N3CCOCC3)[nH]c(=O)c2-c2nc3ccccc3s2)C1` [Example 95, (R)-5-(Benzo[d]thiazol-2-yl)-6-(1-methylpiperidin-3-ylamino)-2-morpholinopyrimidin-4(3H)-one.HCl], for which the half-maximal inhibitory concentration (IC50) stood at 354 nM. Regarding `O=c1[nH]c(N2CCOCC2)nc(N[C@@H]2CCCNC2)c1-c1nc2cc(F)ccc2s1` [Example 97, (R)-5-(5-Fluorobenzo[d]thiazol-2-yl)-2-morpholino-6-(piperidin-3-ylamino)pyrimidin-4(3H)-one.HCl], the IC50 worked out at 8.4 nM. Turning to `O=c1[nH]c(N2CCOCC2)nc(N[C@@H]2CCCNC2)c1-c1nc(-c2ccc(F)cc2)cs1` [Example 98, (R)-5-(4-(4-Fluorophenyl)thiazol-2-yl)-2-morpholino-6-(piperidin-3-ylamino)pyrimidin-4(3H)-one.HCl], the half-inhibitory concentration (IC50) came to 24 nM. Same read-out and setting: the result for `Cc1nccc2sc(-c3c(N[C@@H]4CCCNC4)nc(N4CCOCC4)[nH]c3=O)nc12` [Example 99, (R)-5-(4-Methylthiazolo[4,5-c]pyridin-2-yl)-2-morpholino-6-(piperidin-3-ylamino)pyrimidin-4(3H)-one.HCl] reads 5.7 nM. The same measure, in the same setting: the result for `O=c1[nH]c(N2CCOCC2)nc(N[C@@H]2CCCNC2)c1-c1nc(C2CC2)cs1` [Example 100, (R)-5-(4-cyclopropylthiazol-2-yl)-2-morpholino-6-(piperidin-3-ylamino)pyrimidin-4(3H)-one.HCl] reads 433 nM.

The assay is the same for the next values; noted with them: unit inferred; 100 μM ATP; read-out: IRAK4 IC50.
Turning to `O=c1[nH]c(N2CCC(n3ccnn3)CC2)nc(N[C@@H]2C[C@H](CO)[C@@H](O)[C@H]2O)c1-c1nc2ccccc2s1` [Example 67, 2-(4-(1H-1,2,3-triazol-1-yl)piperidin-1-yl)-5-(benzo[d]thiazol-2-yl)-6-((1R,2S,3R,4R)-2,3-dihydroxy-4-(hydroxymethyl)cyclopentylamino)pyrimidin-4(3H)-one], the IC50 was 11.8 nM. Turning to `O=c1[nH]c(N2CCN(c3ccccn3)CC2)nc(N[C@@H]2C[C@H](CO)[C@@H](O)[C@H]2O)c1-c1nc2ccccc2s1` [Example 68, 5-(benzo[d]thiazol-2-yl)-6-((1R,2S,3R,4R)-2,3-dihydroxy-4-(hydroxymethyl)cyclopentylamino)-2-(4-(pyridin-2-yl)piperazin-1-yl)pyrimidin-4(3H)-one], the IC50 was found to be 12.1 nM. With `O=c1[nH]c(N2CCC(c3cnccn3)CC2)nc(N[C@@H]2C[C@H](CO)[C@@H](O)[C@H]2O)c1-c1nc2ccccc2s1` [Example 69, 5-(benzo[d]thiazol-2-yl)-6-((1R,2S,3R,4R)-2,3-dihydroxy-4-(hydroxymethyl)cyclopentylamino)-2-(4-(pyrazin-2-yl)piperidin-1-yl)pyrimidin-4(3H)-one], the IC50 was 12.5 nM. Same read-out and setting: the result for `O=c1[nH]c(N2CCC(c3cccnc3)CC2)nc(N[C@@H]2C[C@H](CO)[C@@H](O)[C@H]2O)c1-c1nc2ccccc2s1` [Example 70, 5-(benzo[d]thiazol-2-yl)-6-((1R,2S,3R,4R)-2,3-dihydroxy-4-(hydroxymethyl)cyclopentylamino)-2-(4-(pyridin-3-yl)piperidin-1-yl)pyrimidin-4(3H)-one] reads 13.3 nM; that for `CS(=O)(=O)C1CN(c2nc(N[C@@H]3C[C@H](CO)[C@@H](O)[C@H]3O)c(-c3nc4ccccc4s3)c(=O)[nH]2)C1` [Example 71, 5-(benzo[d]thiazol-2-yl)-6-((1R,2S,3R,4R)-2,3-dihydroxy-4-(hydroxymethyl)cyclopentylamino)-2-(3-(methylsulfonyl)azetidin-1-yl)pyrimidin-4(3H)-one], 17.9 nM; that for `O=c1[nH]c(N2CCC(c3ccncc3)CC2)nc(N[C@@H]2C[C@H](CO)[C@@H](O)[C@H]2O)c1-c1nc2ccccc2s1` [Example 72, 5-(benzo[d]thiazol-2-yl)-6-((1R,2S,3R,4R)-2,3-dihydroxy-4-(hydroxymethyl)cyclopentylamino)-2-(4-(pyridin-4-yl)piperidin-1-yl)pyrimidin-4(3H)-one], 19 nM.

On to `Cn1cc(C2CCN(c3nc(N[C@@H]4C[C@H](CO)[C@@H](O)[C@H]4O)c(-c4nc5ccccc5s4)c(=O)[nH]3)CC2)nn1` [Example 73, 5-(benzo[d]thiazol-2-yl)-6-((1R,2S,3R,4R)-2,3-dihydroxy-4-(hydroxymethyl)cyclopentylamino)-2-(4-(1-methyl-1H-1,2,3-triazol-4-yl)piperidin-1-yl)pyrimidin-4(3H)-one], for which the IC50 stood at 19.4 nM. On to `O=c1[nH]c(N2CCc3cnccc3C2)nc(N[C@@H]2C[C@H](CO)[C@@H](O)[C@H]2O)c1-c1nc2ccccc2s1` [Example 74, 5-(benzo[d]thiazol-2-yl)-2-(3,4-dihydro-2,6-naphthyridin-2(1H)-yl)-6-((1R,2S,3R,4R)-2,3-dihydroxy-4-(hydroxymethyl)cyclopentylamino)pyrimidin-4(3H)-one], for which the IC50 was found to be 26.4 nM. With `O=c1[nH]c(N2CCCN(Cc3nccs3)CC2)nc(N[C@@H]2C[C@H](CO)[C@@H](O)[C@H]2O)c1-c1nc2ccccc2s1` [Example 75, 5-(benzo[d]thiazol-2-yl)-6-((1R,2S,3R,4R)-2,3-dihydroxy-4-(hydroxymethyl)cyclopentylamino)-2-(4-(thiazol-2-ylmethyl)-1,4-diazepan-1-yl)pyrimidin-4(3H)-one], the IC50 was found to be 226 nM. Still for that read-out and setting: the result for `O=c1[nH]c(N2CCC(c3ccncc3)C2)nc(N[C@@H]2C[C@H](CO)[C@@H](O)[C@H]2O)c1-c1nc2ccccc2s1` (stereo partly drawn) [Example 76, 5-(benzo[d]thiazol-2-yl)-6-((1R,2S,3R,4R)-2,3-dihydroxy-4-(hydroxymethyl)cyclopentylamino)-2-(3-(pyridin-4-yl)pyrrolidin-1-yl)pyrimidin-4(3H)-one] reads 30.9 nM; that for `CS(=O)(=O)N1CCCN(c2nc(N[C@@H]3C[C@H](CO)[C@@H](O)[C@H]3O)c(-c3nc4ccccc4s3)c(=O)[nH]2)CC1` [Example 77, 5-(benzo[d]thiazol-2-yl)-6-((1R,2S,3R,4R)-2,3-dihydroxy-4-(hydroxymethyl)cyclopentylamino)-2-(4-(methylsulfonyl)-1,4-diazepan-1-yl)pyrimidin-4(3H)-one], 225 nM. As to `O=c1[nH]c(N2CCC(c3ccccn3)CC2)nc(N[C@@H]2C[C@H](CO)[C@@H](O)[C@H]2O)c1-c1nc2ccccc2s1` [Example 78, 5-(benzo[d]thiazol-2-yl)-6-((1R,2S,3R,4R)-2,3-dihydroxy-4-(hydroxymethyl)cyclopentylamino)-2-(4-(pyridin-2-yl)piperidin-1-yl)pyrimidin-4(3H)-one], the IC50 was found to be 36 nM.

In the case of `CC(=O)NCC1CCN(c2nc(N[C@@H]3C[C@H](CO)[C@@H](O)[C@H]3O)c(-c3nc4ccccc4s3)c(=O)[nH]2)CC1` [Example 79, N-((1-(5-(benzo[d]thiazol-2-yl)-4-((1R,2S,3R,4R)-2,3-dihydroxy-4-(hydroxymethyl)cyclopentylamino)-6-oxo-1,6-dihydropyrimidin-2-yl)piperidin-4-yl)methyl)acetamide], the 50% inhibitory concentration (IC50) was 36.7 nM.

Consider `O=c1[nH]c(N2CCC(Cn3cccn3)CC2)nc(N[C@@H]2C[C@H](CO)[C@@H](O)[C@H]2O)c1-c1nc2ccccc2s1` [Example 80, 2-(4-((1H-pyrazol-1-yl)methyl)piperidin-1-yl)-5-(benzo[d]thiazol-2-yl)-6-((1R,2S,3R,4R)-2,3-dihydroxy-4-(hydroxymethyl)cyclopentylamino)pyrimidin-4(3H)-one], for which the IC50 was 119 nM. As to `O=C1NC2(CCN(c3nc(N[C@@H]4C[C@H](CO)[C@@H](O)[C@H]4O)c(-c4nc5ccccc5s4)c(=O)[nH]3)CC2)CO1` [Example 81, 8-(5-(benzo[d]thiazol-2-yl)-4-((1R,2S,3R,4R)-2,3-dihydroxy-4-(hydroxymethyl)cyclopentylamino)-6-oxo-1,6-dihydropyrimidin-2-yl)-3-oxa-1,8-diazaspiro[4.5]decan-2-one], the IC50 was determined as 196 nM.

Take `O=c1[nH]c(N2CCC(c3ccccn3)C2)nc(N[C@@H]2C[C@H](CO)[C@@H](O)[C@H]2O)c1-c1nc2ccccc2s1` (stereo partly drawn) [Example 82, 5-(benzo[d]thiazol-2-yl)-6-((1R,2S,3R,4R)-2,3-dihydroxy-4-(hydroxymethyl)cyclopentylamino)-2-(3-(pyridin-2-yl)pyrrolidin-1-yl)pyrimidin-4(3H)-one]: the half-inhibitory concentration (IC50) is 197 nM.
